Data taken from ChEMBL document CHEMBL6092199, “Naphthalen-1-ylethanamine-containing small molecule inhibitors of the papain-like protease of SARS-CoV-2” (Eur J Med Chem, 2024).
Active and inactive are the calls of the source. The calls are words filed in the database; no cut-off is given here.

Legend:
[1] = test system: SARS-CoV-2; experiment: Antiviral activity against SARS-CoV-2 JPN/TY/WK-521 infected in Vero E6 cells assessed as reduction in viral RNA level incubated for 3 days by RT-qPCR analysis; type: functional, organism-based; details: Severe acute respiratory syndrome coronavirus 2, JPN/TY/WK-521, Vero C1008, 72 h
[2] = Cytotoxicity against african green monkey Vero E6 cells incubated for 3 days by CCK8 assay; type: toxicity, cell-based, Vero C1008; details: chlorocebus sabaeus, time 3 day
[3] = Inhibition of SARS-CoV-1 PL protease using (Z)-Arg-Leu-Arg-Gly-Gly-4-methyl-coumaryl-7-amide as substrate measured every 150 sec for 1 hr by multimode reader assay; set-up: species or system Severe acute respiratory syndrome-related coronavirus
[4] = molecular target: T1, Replicase polyprotein 1ab (Severe acute respiratory syndrome coronavirus 2, UniProt P0DTD1); experiment: Inhibition of SARS-CoV-2 PL protease using (Z)-Arg-Leu-Arg-Gly-Gly-4-methyl-coumaryl-7-amide as substrate and varying concentration of […] by Lineweaver-burk plot analysis
[5] = Inhibition of SARS-CoV-1 PL protease using (Z)-Arg-Leu-Arg-Gly-Gly-4-methyl-coumaryl-7-amide as substrate and varying concentration of […] by Lineweaver-burk plot analysis; set-up: species or system Severe acute respiratory syndrome-related coronavirus
[6] = molecular target: T1, Replicase polyprotein 1ab; experiment: Inhibition of SARS-CoV-2 PL protease using varying concentration of (Z)-Arg-Leu-Arg-Gly-Gly-4-methyl-coumaryl-7-amide as substrate by Dixon plot analysis
[7] = Inhibition of SARS-CoV-1 PL protease using varying concentration of (Z)-Arg-Leu-Arg-Gly-Gly-4-methyl-coumaryl-7-amide as substrate by Dixon plot analysis; set-up: species or system Severe acute respiratory syndrome-related coronavirus
[8] = test system: SARS-CoV-2; experiment: Antiviral activity against SARS-CoV-2 JPN/TY/WK-521 infected in Vero E6 cells assessed as reduction in cytopathic effect at 1 to 100 uM pretreated with virus for 1 hr followed by viral washout and compound exposure for 3 days by immunocytochemistry analysis; type: functional, organism-based; details: Severe acute respiratory syndrome coronavirus 2, dose 1-100 µM, time 3.0 day
[9] = molecular target: T1, Replicase polyprotein 1ab; experiment: Inhibition of SARS-CoV-2 PL protease using (Z)-Arg-Leu-Arg-Gly-Gly-4-methyl-coumaryl-7-amide as substrate measured every 150 sec for 1 hr by multimode reader assay

Row | Compound | EC50 [1] [µM] | CC50 at 72 h [2] [µM] | further results
1 | Cc1cccc(C(=O)NCc2ccc(C)c(C(=O)N[C@H](C)c3cccc4ccccc34)c2)c1 | 44 | > 100 | –
2 | Cc1ccc(CNC(=O)c2cccc(C(F)(F)F)c2)cc1C(=O)N[C@H](C)c1cccc2ccccc12 | 15.7 | > 100 | –
3 | Cc1ccc(CNC(=O)c2ccc(F)c(F)c2)cc1C(=O)N[C@H](C)c1cccc2ccccc12 | 3.8 | > 100 | IC50 [3]: 0.3 µM; Ki [4]: 5.6 µM; Ki [5]: 0.16 µM; Ki [6]: 5.3 µM; Ki [7]: 0.28 µM; Activity [8]: Active
4 | Cc1ccc(CNC(=O)c2cccc(C(F)(F)F)c2F)cc1C(=O)N[C@H](C)c1cccc2ccccc12 | 29.1 | > 100 | –
5 | Cc1ccc(CNC(=O)C(=O)O)cc1C(=O)N[C@H](C)c1cccc2cc3ccccc3cc12 | > 100 | > 100 | –
6 | Cc1ccc(N)cc1C(=O)N[C@H](C)c1cccc2ccccc12 | 24.7 | > 100 | IC50 [3]: 0.05 µM; Ki [5]: 0.12 µM; Ki [7]: 0.29 µM
7 | Cc1ccc(CNC(=O)c2ccc([N+](=O)[O-])c(F)c2)cc1C(=O)N[C@H](C)c1cccc2ccccc12 | 76.9 | > 100 | –
8 | Cc1ccc(CNC(=O)c2ccc(F)cc2C(F)(F)F)cc1C(=O)N[C@H](C)c1cccc2ccccc12 | > 100 | > 100 | –
9 | Cc1ccc(CNC(=O)C(F)(F)F)cc1C(=O)N[C@H](C)c1cccc2ccccc12 | 30.3 | > 100 | –
10 | Cc1ccc(CNC(=O)c2ccc(F)cc2F)cc1C(=O)N[C@H](C)c1cccc2ccccc12 | > 100 | > 100 | –
11 | Cc1ccc(CNC(=O)c2ccccc2[N+](=O)[O-])cc1C(=O)N[C@H](C)c1cccc2ccccc12 | 18.3 | 55.6 | –
12 | Cc1ccc(CNC(=O)c2cccc(C(F)(F)F)c2C)cc1C(=O)N[C@H](C)c1cccc2ccccc12 | > 100 | > 100 | –
13 | Cc1ccc(CNC(=O)c2cc(F)c(F)cc2F)cc1C(=O)N[C@H](C)c1cccc2ccccc12 | > 100 | > 100 | –
14 | Cc1ccc(CNC(=O)c2cccc(F)c2F)cc1C(=O)N[C@H](C)c1cccc2ccccc12 | 52.3 | > 100 | –
15 | Cc1ccc(CNC(=O)C(=O)O)cc1C(=O)N[C@H](C)c1cccc2ccccc12 | 2.7 | > 100 | IC50 [9]: 5.9 µM; IC50 [3]: 0.46 µM; Ki [4]: 4.4 µM; Ki [5]: 0.12 µM; Ki [6]: 4.6 µM; Ki [7]: 0.18 µM; Activity [8]: Active
16 | Cc1ccc(CNC(=O)c2c(F)cc(F)cc2F)cc1C(=O)N[C@H](C)c1cccc2ccccc12 | > 100 | > 100 | –
17 | Cc1ccc(CNC(=O)c2ccccc2)cc1C(=O)N[C@H](C)c1cccc2ccccc12 | 35.4 | > 100 | –
18 | Cc1ccc(CNC(=O)c2ccc(F)cc2)cc1C(=O)N[C@H](C)c1cccc2ccccc12 | 25.7 | > 100 | –
19 | Cc1ccc(CNC(=O)c2ccc(C(F)(F)F)cc2)cc1C(=O)N[C@H](C)c1cccc2ccccc12 | 18.7 | > 100 | –
20 | Cc1ccc(CNC(=O)c2ccc(F)c(F)c2)cc1C(=O)N[C@H](C)c1cccc2cc3ccccc3cc12 | > 100 | > 100 | –

Row | Compound | EC50 [1] [µM] | CC50 at 72 h [2] [µM] | further results
21 | Cc1ccc(CNC(=O)C(N)=O)cc1C(=O)N[C@H](C)c1cccc2ccccc12 | > 100 | > 100 | –
22 | Cc1ccc(C(=O)NCc2ccc(C)c(C(=O)N[C@H](C)c3cccc4ccccc34)c2)cc1 | > 100 | > 100 | –
23 | Cc1ccc(CN)cc1C(=O)N[C@H](C)c1cccc2ccccc12 | 15.5 | > 100 | –
24 | Cc1ccc(CNC(=O)c2ccc(C(C)(C)C)cc2)cc1C(=O)N[C@H](C)c1cccc2ccccc12 | 7.3 | 58.2 | IC50 [9]: 3.1 µM; IC50 [3]: 0.47 µM; Ki [4]: 4.1 µM; Ki [5]: 0.32 µM; Ki [6]: 4.6 µM; Ki [7]: 0.54 µM
25 | Cc1ccc(CNC(=O)c2cc(C(F)(F)F)cc(C(F)(F)F)c2)cc1C(=O)N[C@H](C)c1cccc2ccccc12 | 72.8 | > 100 | –
26 | CCOC(=O)C(=O)NCc1ccc(C)c(C(=O)N[C@H](C)c2cccc3ccccc23)c1 | > 100 | > 100 | –
27 | Cc1ccc(CNC(=O)C(C(F)(F)F)C(F)(F)F)cc1C(=O)N[C@H](C)c1cccc2ccccc12 | > 100 | > 100 | –
28 | Cc1ccc(CNC(=O)c2ccc([N+](=O)[O-])cc2)cc1C(=O)N[C@H](C)c1cccc2ccccc12 | 40.3 | > 100 | –
29 | Cc1ccc(CNC(=O)c2ccc(C(F)(F)F)c(F)c2)cc1C(=O)N[C@H](C)c1cccc2ccccc12 | > 100 | > 100 | –
30 | Cc1ccc(CNC(=O)c2c(F)c(F)cc(F)c2F)cc1C(=O)N[C@H](C)c1cccc2ccccc12 | 44.8 | > 100 | –
31 | Cc1ccc(CNC(=O)c2ccc(C(F)(F)F)cc2F)cc1C(=O)N[C@H](C)c1cccc2ccccc12 | > 100 | > 100 | –
32 | Cc1ccc(CNC(=O)c2ccccc2C(F)(F)F)cc1C(=O)N[C@H](C)c1cccc2ccccc12 | 27.4 | > 100 | –
33 | Cc1ccc(CN)cc1C(=O)N[C@H](C)c1cccc2cc3ccccc3cc12 | 27.3 | 40.5 | –
34 | Cc1ccc(CNC(=O)OC(C)(C)C)cc1C(=O)N[C@H](C)c1cccc2cc3ccccc3cc12 | > 100 | > 100 | –
35 | Cc1ccccc1C(=O)NCc1ccc(C)c(C(=O)N[C@H](C)c2cccc3ccccc23)c1 | 15.1 | > 100 | –
36 | CNCc1ccc(C)c(C(=O)N[C@H](C)c2cccc3ccccc23)c1 | 25.2 | > 100 | –
37 | Cc1ccc(CNC(=O)c2ccccc2F)cc1C(=O)N[C@H](C)c1cccc2ccccc12 | 13.2 | > 100 | –
38 | CC(=O)NCc1ccc(C)c(C(=O)N[C@H](C)c2cccc3ccccc23)c1 | > 100 | > 100 | –
39 | Cc1ccc(CNC(=O)c2cccc(F)c2)cc1C(=O)N[C@H](C)c1cccc2ccccc12 | 57.4 | > 100 | –
40 | Cc1ccc(CNC(=O)CC(F)(F)F)cc1C(=O)N[C@H](C)c1cccc2ccccc12 | 40.7 | > 100 | –
